# Test results as given in patent US9540615B2, “Combined chemical and genetic approaches for generation of induced pluripotent stem cells” (The Scripps Research Institute, priority 2008, dated 2017).
# “Also recorded” adds a separate entry of the source.
# Columns and labels:
# [1] = system: 129 MEFs transduced with OK (Oct4 and Klf4); test: Screen for iPSC generation from OK-transduced 129 MEFs (ESC-like colony morphology, ALP staining); format: cell-based, mouse; conditions: in the absence of BIX
# Experimental: Unmodified MEFs derived from E13-14 embryos of the 129 mice were used for the initial screen. MEFs were plated on Matrigel at 3.5×10^4 cells/well of a 6-well plate and transduced with OK (retroviral vectors expressing Oct4 and Klf4) alone. Within 14-21 days, treated cells were assessed for the appearance of colonies that had the characteristic embryonic stem cell (ESC), colony morphology and were positive for the pluripotency marker alkaline phosphatase (ALP). Such OK-transduced cells generated only a few small non-compact colonies, which were weakly positive for ALP expression. These colonies initially appeared within 21 days after viral transduction and were difficult to expand. Therefore, such assay system offered a clean background for the identification of small molecules having desirable reprogramming inducing activity. Using this system, compounds from a library of around 2000 known small molecules (see Experimental Procedures below) were screened and were identified as hits when they induced the appearance of ESC colonies that were strongly positive for ALP within 14-21 days after treatment. This image-based method provided a more accurate assessment of reprogramming as compared to homogenous reporter-based assay. BIX appeared to have the strongest effect with reproducible induction of more than 1-2 compact ESC-like colonies with high ALP expression. We observed that when MEFs were treated with BIX after OK viral transduction, compact colonies with strong ALP expression could be readily detected within approximately 14-21 days. These cells were also positive for Nanog, Oct4 and SSEA-1 expression. […] However, the reprogramming efficiency in MEFs transduced with OK and treated with BIX was still low, about 2 colonies/3.5×10^4 cells, in comparison to the four factor-induced reprogramming of MEFs or the OK/BIX NPC reprogramming (Shi, Y. et al., Cell Stem Cell, 2:525-528 (2008)). Therefore, we conducted a second screen using a similar protocol, but where BIX was added to the basal media after OK viral transduction. This provided a more permissive platform to identify new small molecules that could further improve reprogramming efficiency. More importantly, this second screen could facilitate discovery of small molecules that impact reprogramming in a more specific manner, for example by acting on signal transduction pathways rather than on histone or DNA modifying enzymes. In this second screen, we again assayed the library of around 2000 known small molecules (see Experimental Procedures), and confirmed two compounds that were able to act in a synergistic manner with BIX to improve reprogramming based on the criteria of the screen. […] Therefore, RG108 was not pursued further for this study. […]
# [2] = system: OG2 MEFs transduced with OK (Oct4 and Klf4); test: iPSC generation from OK-transduced OG2 MEFs (GFP+ colonies), including second synergist screen with BIX; format: cell-based, mouse; conditions: for effect on reprogramming of OK transduced MEFs in the second screen: in the presence of 1 μM BIX, FIG. 3: 0.04 μM RG108, 2 μM BayK; for outcome in second synergist screen: 1 μM BIX plus individual compound at 0.5-2 μM, not further followed up
# Experimental: Primary 129S2/SvPasCrlf (primary screen) or ROSA26^+/−/OG2^+/− (secondary screen) MEFs were plated onto Matrigel (1:50; BD Biosciences, Bedford, Mass.) coated dishes at a density of 3.5×10^4 cells per well of a 6-well plate. Twenty-four hours later, these cells were transduced overnight with defined retroviruses at 37° C., 5% CO2. Twelve to fourteen hours later, the media on the transduced cells was changed to mESC medium [Knockout DMEM, 10% ES-qualified FBS, 10% Knockout serum replacement, 1% Glutamax, 1% Non-essential amino acids, penicillin/streptomycin, 0.1 mM β-mercaptoethanol, 1% EmbryoMax ESC Qualified Nucleosides (Millipore, Temecula, Calif.), and 10^3 U/ml LIF (Millipore)] (all products were from Invitrogen, Carlsbad, Calif., except where mentioned). On that same day, individual small molecules from our known drug collection were added to the cells at a range between 0.5 and 2 μM. Compound treatment was continued for 10-14 days; the cells were fixed and stained on day 14-21 using a standard ALP detection kit (Millipore). For the second screen, 1 μM BIX was added to the mESC medium 1 day after transduction. Five days later, in addition to 1 μM BIX, individual small molecule from the known drug collection was added to each well, at a range between 0.5 and 2 μM. Mouse ESC media with defined small molecules was refreshed every three days until colonies with a similar morphology to mESCs were observed, which was usually between 14-21 days after transduction. […] Further characterization studies and repeats were carried either on primary 129S2/SvPasCrlf or ROSA26^+/−/OG2^+/− MEFs. When ROSA26^+/−/OG2^+/− MEFs were used, the iPSC colonies could also be identified through GFP expression, as a marker of Oct4 expression. Once iPSC colonies were identified, they were picked for expansion on MEF feeder cells in mESC medium.
# mES R1 cells = test: Proliferation assay; format: cell-based, mouse; conditions: 2 μM BayK, 1 μM BIX or both; 15, 24 and 48 hours; compared to DMSO, n=3
# Experimental: mES R1 cells were plated onto gelatin-coated 6-well plates at a density of 2×10^5 cells/well in complete mES cell media. Upon cell attachment, app. 12 hours, the cells were treated either with DMSO, 1 μM BIX, 2 μM BayK, and a combination of both, in triplicate. At 15, 24 and 48 hours, the cells were detached using trypsin, and counted using a hemocytometer. Trypan blue (Sigma-Aldrich, St. Louis, Mo.) was used for dead cell exclusion.
# [3] = system: Sox2 expression in OG2 MEFs; test: Assessment of SOX2 expression after compound treatment (semi-quantitative RT-PCR); format: cell-based, mouse; conditions: 2 μM BayK alone or with 1 μM BIX, 6 days
# Experimental: OG2^+/−/ROSA26^+/− MEFs were plated onto 6-well plate at a density of 3.4×10^4 cells per well. On the following day, the cells were treated with DMSO, 1 μM BIX, 2 μM BayK, and a combination of both, in triplicate, for 6 days. The media was refreshed at day 3. RNA from each well was then isolated using the RNAeasy Mini Kit (Quiagen). Reverse transcription of the RNA was performed using the iScript™cDNA Synthesis Kit (BioRad, Hercules, Calif.). Amplification of endogenous Sox2 was done using primers previously published (Takahashi, K., Okita, K., Nakagawa, M., and Yamanaka, S. (2007). Induction of pluripotent stem cells from fibroblast cultures. Nat Protoc 2, 3081-3089; Takahashi, K., and Yamanaka, S. (2006). Induction of pluripotent stem cells from mouse embryonic and adult fibroblast cultures by defined factors. Cell 126, 663-676) with Platinum PCR SuperMix (Invitrogen) on a Mastercycler® ep gradient PCR machine (Eppendorf).
# Mouse fibroblasts = test: Induction of pluripotency by incubation of fibroblasts with poly-Arg transcription factor proteins; format: cell-based; conditions: agent added during protein-induced reprogramming
# Experimental: Mouse fibroblasts were grown in mESC medium supplemented with 8 μg/ml of either Oct4/Sox2/Klf4 or Oct4/Sox2/Klf4/Myc (all proteins comprising poly-Arg as described above) for 6-8 hours, washed, and incubated for 2-3 days in mESC media without the above-listed transcription factors. This (4-12 hours with, 1-3 days without) was repeated a number (1, 2, 3, 4, or more) of times and then the cells were cultures in mESC for two weeks.
# non-iPS cells = test: MEK inhibitor applied at late stage of reprogramming as selection: growth of non-iPS cells; format: cell-based, mouse; conditions: late stage of reprogramming (after Oct4-GFP activation)
# Text: (§1) Finally, we observed that the application of a specific small molecule inhibitor of MEK, PD0325901, to late stage of reprogramming (e.g. after Oct4-GFP activation) can serve as an excellent selection strategy for generating iPS cells. Due to the very low efficiency of reprogramming, iPS cells are typically selected out by utilizing reporter (e.g. Neo/Puro or GFP) that is under control of the regulatory elements of a pluripotency marker using genetically modified somatic cell lines, or manually picked out based on cell morphology. While the later method applicable to genetically unmodified cells is better suited for ultimate clinical application of iPS cells, it is a much more tedious and less reliable technique that typically requires picking and propagating over several passages many colonies, only a small fraction of which would become true iPS cells efficiently. This is partly because that large percentage of similarly looking colonies may be partially reprogrammed cells and/or simply transformed cells, which grow rapidly and may interfere with growth and reprogramming of iPS cells. Consequently, having an alternative selection strategy for genetically unmodified cells would be highly desirable.
# iPS cells = test: MEK inhibitor applied at late stage of reprogramming as selection: growth and stable reprogramming of iPS cells; format: cell-based, mouse; conditions: late stage of reprogramming (after Oct4-GFP activation)
# Text: as §1
# cellular reprogramming = test: Enhancement of cellular reprogramming by nuclear receptor ligands; format: cell-based
smiles,measurement,setting,value
COC(=O)C1=C(C)NC(C)=C([N+](=O)[O-])C1c1ccccc1C(F)(F)F (stereo not shown) [BayK],reprogramming activity on OK-transduced MEFs,[1],no observable reprogramming activity
same,reprogramming efficiency versus OK-transduced MEF control,"[2]; compound alone, in the absence of BIX (data not shown)",did not increase reprogramming efficiency above OK-transduced MEF control
same,effect on reprogramming of OK transduced MEFs in the second screen,[2],strongest effect in the screen aside from known DNA/histone modifiers
same,proliferation of mES cells (cell number),mES R1 cells,No significant difference; also recorded: does not lead to a change in proliferation
same,SOX2 expression,[3],does not induce SOX2 expression
Cc1c[nH]c(-c2cnc(NCCNc3ccc(C#N)cn3)nc2-c2ccc(Cl)cc2Cl)n1 [CHIR99021],efficiency and speed of development of pluripotent cells,Mouse fibroblasts,improved efficiency and speed of development of pluripotent cells
O=C(NOC[C@H](O)CO)c1ccc(F)c(F)c1Nc1ccc(I)cc1F [PD0325901],growth of non-iPS cells,non-iPS cells,inhibits growth of non-iPS cells
same,growth and stable reprogramming of iPS cells,iPS cells,effectively promotes growth and stable reprogramming of iPS cells
same,efficiency and speed of development of pluripotent cells,Mouse fibroblasts,improved efficiency and speed of development of pluripotent cells
O=C(O)C(Cc1c[nH]c2ccccc12)N1C(=O)c2ccccc2C1=O (stereo not shown) [RG108],effect on reprogramming of OK transduced MEFs in the second screen,[2],enhanced reprogramming of OK transduced MEFs in the presence of BIX
CCN(CC)CCCCNc1ncc2cc(-c3cc(OC)cc(OC)c3)c(NC(=O)NC(C)(C)C)nc2n1 [PD173074],outcome in second synergist screen,[2],primary hits
NC(=O)c1ccc(-c2nc(-c3ccc4c(c3)OCO4)c(-c3ccccn3)[nH]2)cc1 [SB431542],efficiency and speed of development of pluripotent cells,Mouse fibroblasts,improved efficiency and speed of development of pluripotent cells
Cc1cc(Nc2ncc3c(n2)N(C)C(=O)N(c2cc(NC(=O)c4cccc(C(F)(F)F)c4)ccc2C)C3)n(C)n1 [pluripotin],outcome in second synergist screen,[2],primary hits
C=C(c1ccc(C(=O)O)cc1)c1cc2c(cc1C)C(C)(C)CCC2(C)C [Bexarotene],cellular reprogramming,cellular reprogramming; at 3 μM,enhance cellular reprogramming
c1nc2nc(Nc3ccc(N4CCOCC4)cc3)nc(NC3CCCCC3)c2[nH]1 [reversine],outcome in second synergist screen,[2],primary hits
CC(C)C[C@H](NC(=O)OCC1c2ccccc2-c2ccccc21)C(=O)O [Fmoc-Leu],cellular reprogramming,cellular reprogramming; at 5 μM,enhance cellular reprogramming
